The test concerns recombinant human CRF receptors. Nature of the test: CRF receptors-binding assay by scintillation proximity (SPA), displacement of 125I-oCRF (CRF1) / 125I-Sauvagine (CRF2). The following applies: qualitative statement; assay not specified. The procedure:
The CRF receptors-binding assay was performed by using the homogeneous technique of scintillation proximity (SPA). The ligand binds to recombinant membrane preparation expressing the CRF receptors which in turn bind to wheat germ agglutinin coated SPA beads. In the Experimental Part will be disclosed the details of the experiments.
CRF binding affinity has been determined in vitro by the compounds' ability to displace ^125I-oCRF and ^125I-Sauvagine for CRF1 and CRF2 SPA, respectively, from recombinant human CRF receptors expressed in Chinese Hamster Ovary (CHO) cell membranes. For membrane preparation, CHO cells from confluent T-flasks were collected in SPA buffer (HEPES/KOH 50 mM, EDTA 2 mM; MgCl2 10 mM, pH 7.4.) in 50 mL centrifuge tubes, homogenized with a Polytron and centrifuged (50,000 g for 5 min at 4° C.: Beckman centrifuge with JA20 rotor). The pellet was resuspended, homogenized and centrifuged as before.
The SPA experiment has been carried out in Optiplate by the addition of 100 μL the reagent mixture to 1 μL of compound dilution (100% DMSO solution) per well. […]
The plate was incubated overnight (>18 hrs) at room temperature and read with the Packard Topcount with a WGA-SPA ^125I counting protocol.

`CCC(COC)Oc1nc(C)nc2c1CCN2c1ccc(C(F)(F)F)cc1C(F)(F)F` (stereo not shown) [Compound 1-12, 7-(2,4-bis-trifluoromethyl-phenyl)-4-(1-methoxymethyl-propoxy)-2-methyl-6,7-dihydro-5H-pyrrolo[2,3-d]pyrimidine]: the activity entry is listed as “good activity”.
